Measurements taken from publication PMC8998355, “Diversity-Oriented Synthesis Catalyzed by Diethylaminosulfur-Trifluoride—Preparation of New Antitumor Ecdysteroid Derivatives” (International Journal of Molecular Sciences, 2022).

Assays:
ABCB1 = molecular target: T1, ABCB1 (Homo sapiens, UniProt P08183); experiment: ABCB1 inhibition assay (rhodamine 123 accumulation, flow cytometry); type: cell-based; details: human, probe rhodamine 123 (5.2 µM); for inhibition at 20 min, 2 µM / inhibition at 20 min, 20 µM: n = 1
T1 construct: expressed in transfected cells; host or cells: L5178Y mouse T-cell lymphoma cells transfected with pHa MDR1/A retrovirus, selected with colchicine (L5178YMDR)
Experimental: ABCB1 inhibition was determined by the intracellular accumulation of rhodamin 123 as reported before. Briefly, 2 × 10^6 cells/mL of L5178Y and L5178YMDR cell lines were re-suspended in serum-free McCoy’s 5A medium and distributed in 0.5 mL aliquots into Eppendorf centrifuge tubes. The compounds were added at a final concentration of 2 or 20 μM and the samples were incubated for 10 min at room temperature. Tariquidar was used as positive control and DMSO as negative control; for the latter, no activity was observed. Subsequently, 10 μL (5.2 μM final concentration) of the ABCB1 substrate fluorescent dye rhodamine 123 was added and the cells were incubated further for 20 min at 37 °C, washed twice and re-suspended in 1 mL PBS for analysis. Fluorescence of the cell population was measured with a PartecCyFlow® flow cytometer (Partec, Münster, Germany). Mean fluorescence intensity percentage was calculated for the treated vs. untreated L5178YMDR cells. Inhibition percentage for the treated cells was calculated from the corresponding values of the untreated L5178Y and L5178YMDR cells, representing 100% and 0% inhibition, respectively.

[1] = tested on: L5178YMDR cells (ABCB1-expressing); experiment: MTT antiproliferative assay (72 h, 6 × 10^3 cells); type: cell-based; details: Mus musculus, 72 h MTT, n = 3, read-out: Antiproliferative Effect (IC50 ± SD)
Experimental: (§1) To assess the compounds’ effect on cell growth and viability, we used two different experimental setups of MTT assay. This allowed a comparative evaluation of results obtained from a short-term (24 h) treatment of a relatively higher number (10,000) of cells and those from a long-term (72 h) treatment of a lower cell number (6000), which makes it possible to gain some insight into the cytotoxic vs. cytostatic properties of the compounds. Even though MTT assay is an endpoint detection method, i.e., it provides a single readout of viable cells at the end of the experiment, such a comparison offers a reliable tool to identify antiproliferative activity of compounds that are not cytotoxic.
(§2) L5178Y mouse T-cell lymphoma cells (ECACC Cat. No. 87111908) were obtained from FDA, Silver Spring, MD, USA. These were transfected with pHa MDR1/A retrovirus as described previously. ABCB1-expressing L5178YMDR cells were selected by culturing the infected cells with colchicine. The cell lines were cultured in McCoy’s 5A medium supplemented with 10% heat inactivated horse serum, 2 mM L-glutamine, and penicillin–streptomycin mixture.
(§3) MTT assay was performed in 96-well flat-bottomed microtiter plates as described before. Briefly, a 10 mM concentration stock solution in DMSO was prepared for each compound. These were diluted in 100 μL of McCoy’s 5A medium. Subsequently, 1 × 10^4 (cytotoxicity assay) or 6 × 10^3 (antiproliferative assay) T-cell mouse lymphoma cells in 100 μL of medium were added to each well, except for the medium control wells.
(§4) The culture plates were further incubated at 37 °C for 24 h (cytotoxicity assay) or 72 h (antiproliferative assay); at the end of the incubation period, 20 μL of MTT solution (from a 5 mg/mL stock) was added to each well. After incubation at 37 °C for 4 h, 100 μL of SDS solution (10% in 0.01 M HCI) was added to each well and the plates were further incubated at 37 °C overnight. The cell growth was determined by measuring the optical density at 540 nm (ref. 630 nm) with a Multiscan EX ELISA reader (Thermo Labsystems, Cheshire, WA, USA). IC50 values were calculated by variable slope nonlinear regression using the log(inhibitor) vs. normalized response of GraphPad Prism 5.01 (GraphPad Software Inc., San Diego, CA, USA).

[2] = tested on: L5178Y mouse T-cell lymphoma cells; experiment: MTT antiproliferative assay (72 h, 6 × 10^3 cells); type: cell-based; details: Mus musculus; L5178Y, 72 h MTT, n = 3; read-out: Antiproliferative Effect (IC50 ± SD)
Experimental: as §1, §2, §3, §4

[3] = tested on: MRC-5 human embryonal lung fibroblasts; experiment: MTT antiproliferative assay (72 h); type: cell-based; details: Homo sapiens, MRC5; MRC-5, 72 h MTT, n = 3; read-out: Antiproliferative Effect (IC50 ± SD)
Experimental: as §1
(§5) MRC-5 human embryonal lung fibroblasts (CCL-171, ATCC) were acquired from Sigma-Aldrich (Merck, KGaA, Darmstadt, Germany), and were cultured in EMEM medium containing 4.5 g/L glucose and supplemented with a non-essential amino acid mixture, a selection of vitamins, and 10% of FBS.
(§6) The adherent human fibroblast cells were seeded in 100 μL of EMEM medium overnight before each assay. Two-fold serial dilutions of the compounds (0.19–100 µM) were prepared in separate plates, then transferred to the plates containing the adherent cell lines.
as §4

[4] = MTT cytotoxicity assay (24 h); type: cell-based; details: human, MRC-5 human embryonal lung fibroblasts; MRC-5, 24 h MTT, n = 3; read-out: Cytotoxicity (IC50 ± SD)
Experimental: as §1, §5, §6, §4

[5] = tested on: L5178YMDR cells (ABCB1-expressing); experiment: MTT cytotoxicity assay (24 h, 1 × 10^4 cells); type: cell-based; details: Mus musculus, 24 h MTT, n = 3, read-out: Cytotoxicity (IC50 ± SD)
Experimental: as §1, §2, §3, §4

[6] = tested on: L5178Y mouse T-cell lymphoma cells; experiment: MTT cytotoxicity assay (24 h, 1 × 10^4 cells); type: cell-based; details: 24 h MTT, n = 3, read-out: Cytotoxicity (IC50 ± SD)
Experimental: as §1, §2, §3, §4

L5178YMDR cells = experiment: Combination assay with doxorubicin (checkerboard microplate method, MTT); type: cell-based, mouse; design: Dm (antilog of the x-intercept of the median-effect plot): unit not given here; details: for CIavg (weighted average CI): (CI50 + 2CI75 + 3CI90)/6
Experimental: Compounds 7, 10, 11, 13, and 14 had sufficient individual antiproliferative properties for their assessment of chemo-sensitizing activity. This was carried out as an antiproliferative assay on L5178YMDR cells in combination with doxorubicin, arranged according to the checkerboard microplate method.
The checkerboard microplate method was used to evaluate the compounds’ interaction with doxorubicin, as described before. Briefly, doxorubicin (2 mg/mL, Teva Pharmaceuticals, Budapest, Hungary) was serially diluted in the horizontal direction (100 µL per well), and the ecdysteroid was subsequently diluted in the vertical direction (50 µL per well). L5178YMDR cells were re-suspended in culture medium and added to each test well in 50 µL to contain 1 × 10^4 cells per well, and 50 µL of medium was added to the medium control wells. The plates were incubated for 72 h at 37 °C in a CO2 incubator and, at the end of the incubation period, the cell growth was determined by MTT assay as described above. Cell viability data were analyzed by the Calcusyn software using the Chou method, and drug interactions were expressed as combination index (CI) values, in which 0 < CI < 1, CI = 1, and CI > 1 refer to synergism, additivity, and antagonism, respectively.

[7] = L5178YMDR, rhodamine 123 accumulation
[8] = drug ratio 23.2:1, with doxorubicin
[9] = drug ratio 46.4:1, with doxorubicin
[10] = drug ratio 92.8:1, with doxorubicin
[11] = drug ratio 185.6:1, with doxorubicin

CC(=O)[C@H]1CC=C2C3=CC(=O)[C@@H]4C[C@H]5OC(C)(C)O[C@H]5C[C@]4(C)[C@H]3CC[C@@]21C [Compound 10]
inhibition at 20 min, 2 µM (ABCB1; [7]): -0.38% | inhibition at 20 min, 20 µM (ABCB1; [7]): -0.16% | IC50 [1]: 42.3 ± 1.5 µM | IC50 [2]: 27.7 ± 0.6 µM | IC50 [3]: > 100 µM | IC50 at 24 h [4]: > 100 µM | IC50 [5]: 83 ± 5 µM | IC50 [6]: 72.9 ± 5.6 µM | CI at ED75 (L5178YMDR cells; [8]): 0.50 | CI at ED90 (L5178YMDR cells; [8]): 0.33 | Dm (antilog of the x-intercept of the median-effect plot) (L5178YMDR cells; [8]): 6.50 | CIavg (weighted average CI) (L5178YMDR cells; [8]): 0.46 | CI at ED75 (L5178YMDR cells; [9]): 0.51 | CI at ED90 (L5178YMDR cells; [9]): 0.30 | Dm (antilog of the x-intercept of the median-effect plot) (L5178YMDR cells; [9]): 10.99 | CIavg (weighted average CI) (L5178YMDR cells; [9]): 0.46 | CI at ED75 (L5178YMDR cells; [10]): 0.55 | CI at ED90 (L5178YMDR cells; [10]): 0.35 | Dm (antilog of the x-intercept of the median-effect plot) (L5178YMDR cells; [10]): 14.02 | CIavg (weighted average CI) (L5178YMDR cells; [10]): 0.50 | CI at ED75 (L5178YMDR cells; [11]): 0.61 | CI at ED90 (L5178YMDR cells; [11]): 0.36 | Dm (antilog of the x-intercept of the median-effect plot) (L5178YMDR cells; [11]): 19.47 | CIavg (weighted average CI) (L5178YMDR cells; [11]): 0.55

CC(=O)[C@H]1CC=C2C3=CC(=O)[C@@H]4C[C@H]5OC(C)(C)O[C@H]5C[C@]4(C)C3=CC[C@@]21C [Compound 6]
inhibition at 20 min, 2 µM (ABCB1; [7]): -0.38% | inhibition at 20 min, 20 µM (ABCB1; [7]): 0.13% | IC50 [1]: 54.1 ± 2.3 µM | IC50 [2]: 31.2 ± 3.9 µM | IC50 [3]: > 100 µM | IC50 at 24 h [4]: > 100 µM | IC50 [5]: > 100 µM | IC50 [6]: 91.1 ± 6.8 µM

CC(=O)O[C@H]1C[C@]2(C)C3=CC[C@@]4(C)C(=CC[C@@H]4[C@@]4(C)OC(C)(C)O[C@@H]4CCC(C)(C)O)C3=C(O)C(=O)[C@@]23C[C@@H]13 [Compound 17]
inhibition at 20 min (ABCB1; concentration not given, read-out: direct ABCB1 inhibition): ~50% | inhibition at 20 min, 2 µM (ABCB1; [7]): 1.08% | inhibition at 20 min, 20 µM (ABCB1; [7]): 45.5% | IC50 [1]: 14.3 ± 0.5 µM | IC50 [2]: 20.3 ± 1 µM | IC50 [3]: 5.9 ± 1.2 µM | IC50 [5]: 35.9 ± 0.6 µM | IC50 [6]: 27.2 ± 1 µM

CC(=O)[C@H]1CC[C@@]2(O)C3=CC(=O)[C@@H]4C[C@H]5OC(C)(C)O[C@H]5C[C@]4(C)C3=CC[C@]12C [Compound 5]
inhibition at 20 min, 2 µM (ABCB1; [7]): 0.2% | inhibition at 20 min, 20 µM (ABCB1; [7]): -0.41% | IC50 [1]: 80.2 ± 2.1 µM | IC50 [2]: 56.5 ± 6 µM | IC50 [3]: 20.9 ± 3.6 µM | IC50 at 24 h [4]: > 100 µM | IC50 [5]: > 100 µM | IC50 [6]: > 100 µM

CC(=O)[C@H]1CC[C@@]2(O)C3=CC(=O)[C@@H]4C[C@H]5OC(C)(C)O[C@H]5C[C@]4(C)[C@H]3[C@H](O)C[C@]12C [Compound 3]
inhibition at 20 min, 2 µM (ABCB1; [7]): -0.03% | inhibition at 20 min, 20 µM (ABCB1; [7]): -0.35% | IC50 [1]: > 100 µM | IC50 [2]: 75.5 ± 4.1 µM | IC50 [3]: 21.4 ± 0.2 µM | IC50 at 24 h [4]: > 100 µM | IC50 [5]: > 100 µM | IC50 [6]: > 100 µM

COc1cccc2c1C(=O)c1c(O)c3c(c(O)c1C2=O)C[C@@](O)(C(=O)CO)C[C@@H]3O[C@H]1C[C@H](N)[C@H](O)[C@H](C)O1 [Doxorubicin, reference compound]
IC50 [1]: 0.71 ± 0.2 µM | IC50 [2]: 0.014 ± 0.002 µM | IC50 at 24 h [4]: 1.7 ± 0.5 µM | IC50 [5]: 8.1 ± 2.8 µM | IC50 [6]: 0.3 ± 0.1 µM

CC(=O)[C@H]1CC[C@@]2(O)C3=CC(=O)[C@@H]4C[C@H]5OC(C)(C)O[C@H]5C[C@]4(C)[C@H]3CC[C@]12C [Compound 9, poststerone 2,3-acetonide]
inhibition at 20 min, 2 µM (ABCB1; [7]): -0.4% | inhibition at 20 min, 20 µM (ABCB1; [7]): -0.42% | IC50 [1]: 85.2 ± 5.1 µM | IC50 [2]: 49.2 ± 3.4 µM | IC50 [3]: > 100 µM | IC50 at 24 h [4]: > 100 µM | IC50 [5]: > 100 µM | IC50 [6]: > 100 µM

CC(=O)O[C@H]1C[C@@]2(C)C(=C(O)C(=O)C3=C2CC[C@@]2(C)C3=CC[C@@H]2[C@@]2(C)OC(C)(C)O[C@@H]2CCC(C)(C)O)C[C@H]1O [Compound 16, calonysterone 2-acetate 20,22-acetonide]
inhibition at 20 min, 2 µM (ABCB1; [7]): 0.71% | inhibition at 20 min, 20 µM (ABCB1; [7]): 15.7% | IC50 [1]: 40 ± 3.4 µM | IC50 [2]: 50.3 ± 0.2 µM | IC50 [3]: 67.2 ± 14.6 µM | IC50 at 24 h [4]: > 100 µM | IC50 [5]: 78.7 ± 6.7 µM | IC50 [6]: 63 ± 4.4 µM

COc1cc2c(cc1OC)CN(CCc1ccc(NC(=O)c3cc(OC)c(OC)cc3NC(=O)c3cnc4ccccc4c3)cc1)CC2 [tariquidar, reference compound]
inhibition at 20 min, 0.02 µM (ABCB1; 20 nM, L5178YMDR, rhodamine 123 accumulation, read-out: ABCB1 inhibition, positive control): 87.5%
